Results taken from patent publication US20220323406A1, “METHODS AND COMPOSITIONS FOR DIFFERENTIATING STEM CELLS” (Massachusetts Institute of Technology, priority 2019, published 2022).

Legend:
[1] = tested on: ENR+CD organoids (ISC to Paneth cell differentiation); experiment: Primary screen: basal (non-stimulated) lysozyme secretion LYZ.NS, 2.5-D 384-well ENR+CD organoid differentiation; type: cell-based, mouse
Description: (§1) High-throughput screening.

[2] = tested on: ENR+CD organoids (ISC to Paneth cell differentiation); experiment: Primary screen: CCh-stimulated lysozyme secretion LYZ.S, 2.5-D 384-well ENR+CD organoid differentiation; type: cell-based, mouse; details: primary screen
Description: as §1

[3] = tested on: ENR+CD organoids; experiment: Primary screen: ATP (CellTiter-Glo 3D, CTG) cell number/viability, 2.5-D 384-well ENR+CD organoids;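 further: compounds given at plating and again on day 3 over a 6-day differentiation from ENR+CV stem-cell-enriched precursors, ATP measured on day 6, plate median as control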
[4] = primary screen, standard z score, dose 0.08 uM
[5] = primary screen, standard z score, dose 0.40 uM
[6] = primary screen, standard z score, dose 2.00 uM
[7] = primary screen, standard z score, dose 10.00 uM
[8] = primary screen, dose 0.08 uM, FC relative to plate median
[9] = primary screen, dose 0.08 uM, standard z score
[10] = primary screen, dose 0.40 uM, FC relative to plate median
[11] = primary screen, dose 0.40 uM, standard z score
[12] = primary screen, dose 2.00 uM, FC relative to plate median
[13] = primary screen, dose 2.00 uM, standard z score
[14] = primary screen, dose 10.00 uM, FC relative to plate median
[15] = primary screen, dose 10.00 uM, standard z score
[16] = dose 0.08 uM, FC relative to plate median
[17] = dose 0.40 uM, FC relative to plate median
[18] = dose 2.00 uM, FC relative to plate median
[19] = dose 10.00 uM, FC relative to plate median

SMILES	Dose.FC.LYZ.NS ([1]; primary screen, dose 0.08 uM) [log2 fold change]	Dose.FC.LYZ.NS ([1]; primary screen, dose 0.40 uM) [log2 fold change]	Dose.FC.LYZ.NS ([1]; primary screen, dose 2.00 uM) [log2 fold change]	Dose.FC.LYZ.NS ([1]; primary screen, dose 10.00 uM) [log2 fold change]	Z.LYZ.NS [1, 4]	Z.LYZ.NS [1, 5]	Z.LYZ.NS [1, 6]	Z.LYZ.NS [1, 7]	Dose.FC.LYZ.S ([2]; dose 0.08 uM) [log2 fold change]	Dose.FC.LYZ.S ([2]; dose 0.40 uM) [log2 fold change]	Dose.FC.LYZ.S ([2]; dose 2.00 uM) [log2 fold change]	Dose.FC.LYZ.S ([2]; dose 10.00 uM) [log2 fold change]	Dose.FC.CTG ([3]; primary screen, dose 0.08 uM) [log2 fold change]	Dose.FC.CTG ([3]; primary screen, dose 0.40 uM) [log2 fold change]	Dose.FC.CTG ([3]; primary screen, dose 2.00 uM) [log2 fold change]	Dose.FC.CTG ([3]; primary screen, dose 10.00 uM) [log2 fold change]	Z.LYZ.NS (standard z score) ([1]; primary screen, dose 0.08 uM)	Z.LYZ.NS (standard z score) ([1]; primary screen, dose 0.40 uM)	Z.LYZ.NS (standard z score) ([1]; primary screen, dose 2.00 uM)	Z.LYZ.NS (standard z score) ([1]; primary screen, dose 10.00 uM)	other results
C[C@H](CS)C(=O)N1CCC[C@H]1C(=O)O [Captopril]	0.059	0.035	0.033	0.153	0.511	0.307	0.285	1.330	0.049	0.109	0.051	0.077	−0.056	0.108	0.123	0.107					
Cn1c(N2CCCCS2(=O)=O)nc(C(=O)NCc2ccc(F)cc2)c(O)c1=O [BMS-707035]	0.107	0.135	0.110	0.070					0.134	0.182	0.048	0.050	0.318	0.238	0.279	0.138	0.933	1.174	0.955	0.613	
O=C(Oc1cc(S(=O)(=O)c2ccccc2)ccc1[N+](=O)[O-])c1ccc(Cl)cc1 [BTB06584]	0.091	0.025	0.024	−0.031					0.222	0.042	0.039	0.019	0.275	0.288	−0.180	0.199	0.795	0.214	0.206	−0.268	Z.CTG (standard z score) ([3]; primary screen, dose 0.08 uM): 0.657; Z.CTG (standard z score) ([3]; primary screen, dose 0.40 uM): 0.688; Z.CTG (standard z score) ([3]; primary screen, dose 2.00 uM): −0.431; Z.CTG (standard z score) ([3]; primary screen, dose 10.00 uM): 0.475
O=C(N/N=C/c1ccc(O)c(O)c1)c1cc2ccccc2cc1O [Dynasore]	0.049	−0.020	0.036	0.048	0.431	−0.176	0.314	0.414	0.078	0.122	−0.024	0.041	−0.248	−0.253	−0.152	−0.011					
O=S(=O)(c1ccccc1)c1cnc2c(N3CCNCC3)cccc2c1 [SB742457]																					Dose.FC.LYZ.NS [1, 8]: 0.012 log2 fold change; Z.LYZ.NS [1, 9]: 0.108; Dose.FC.LYZ.NS [1, 10]: −0.062 log2 fold change; Z.LYZ.NS [1, 11]: −0.537; Dose.FC.LYZ.NS [1, 12]: 0.069 log2 fold change; Z.LYZ.NS [1, 13]: 0.598; Dose.FC.LYZ.NS [1, 14]: 0.013 log2 fold change; Z.LYZ.NS [1, 15]: 0.115; Dose.FC.LYZ.S [2, 16]: −0.055 log2 fold change; Dose.FC.LYZ.S [2, 17]: −0.029 log2 fold change; Dose.FC.LYZ.S [2, 18]: −0.003 log2 fold change; Dose.FC.LYZ.S [2, 19]: −0.006 log2 fold change; Dose.FC.CTG [3, 8]: −0.290 log2 fold change; Z.CTG [3, 9]: −0.693; Dose.FC.CTG [3, 10]: −0.126 log2 fold change; Z.CTG [3, 11]: −0.300; Dose.FC.CTG [3, 12]: −0.177 log2 fold change; Z.CTG [3, 13]: −0.423; Dose.FC.CTG [3, 14]: −0.294 log2 fold change; Z.CTG [3, 15]: −0.702
CC1(C)CCC(c2ccc(Cl)cc2)=C(CN2CCN(c3ccc(C(=O)NS(=O)(=O)c4ccc(N[C@H](CCN5CCOCC5)CSc5ccccc5)c(S(=O)(=O)C(F)(F)F)c4)cc3)CC2)C1 [ABT-263 (Navitoclax)]	0.012	0.007	−0.143	−0.259					−0.010	−0.020	−0.205	−0.400	−0.212	−0.264	−0.368	−0.962	0.104	0.062	−1.248	−2.259	Z.CTG (standard z score) ([3]; primary screen, dose 0.08 uM): −0.507; Z.CTG (standard z score) ([3]; primary screen, dose 0.40 uM): −0.631; Z.CTG (standard z score) ([3]; primary screen, dose 2.00 uM): −0.878; Z.CTG (standard z score) ([3]; primary screen, dose 10.00 uM): −2.298
CC(NC(=O)c1ccccc1/N=C/c1c(O)ccc2ccccc12)c1ccccc1 (stereo not shown) [Sirtinol]																					Dose.FC.LYZ.NS [1, 8]: 0.095 log2 fold change; Z.LYZ.NS [1, 9]: 0.824; Dose.FC.LYZ.NS [1, 10]: 0.000 log2 fold change; Z.LYZ.NS [1, 11]: 0.002; Dose.FC.LYZ.NS [1, 12]: 0.061 log2 fold change; Z.LYZ.NS [1, 13]: 0.531; Dose.FC.LYZ.NS [1, 14]: 0.078 log2 fold change; Z.LYZ.NS [1, 15]: 0.679; Dose.FC.LYZ.S [2, 16]: 0.077 log2 fold change; Dose.FC.LYZ.S [2, 17]: 0.088 log2 fold change; Dose.FC.LYZ.S [2, 18]: 0.028 log2 fold change; Dose.FC.LYZ.S [2, 19]: 0.026 log2 fold change; Dose.FC.CTG [3, 8]: −0.218 log2 fold change; Dose.FC.CTG [3, 10]: 0.009 log2 fold change; Dose.FC.CTG [3, 12]: −0.120 log2 fold change; Dose.FC.CTG [3, 14]: −0.078 log2 fold change
O=C(NCc1ccccc1)c1csc(Nc2ccncn2)n1 [Thiazovivin]	0.090	0.070	0.024	−0.069					0.142	0.060	0.064	0.037	0.141	0.113	0.312	0.189	0.780	0.611	0.205	−0.605	Z.CTG (standard z score) ([3]; primary screen, dose 0.08 uM): 0.337; Z.CTG (standard z score) ([3]; primary screen, dose 0.40 uM): 0.271; Z.CTG (standard z score) ([3]; primary screen, dose 2.00 uM): 0.746; Z.CTG (standard z score) ([3]; primary screen, dose 10.00 uM): 0.451
CC1(COc2ccc3c(c2)ncn3-c2ccc3cccc(N4CCC(N)CC4)c3n2)COC1 [Crenolanib (CP-868596)]	0.121	0.051	0.122	−0.224	1.051	0.441	1.065	−1.951	0.094	0.043	0.149	−0.292	−0.069	−0.025	0.053	−0.338					Z.CTG [3, 4]: −0.165; Z.CTG [3, 5]: −0.059; Z.CTG [3, 6]: 0.127; Z.CTG [3, 7]: −0.808
CN[C@@H](C)C(=O)N[C@H](C(=O)N1CCC[C@H]1C(=O)Nc1snnc1-c1ccccc1)C1CCCCC1 [GDC-0152]	−0.002	−0.020	0.083	0.103	−0.013	−0.176	0.724	0.900	−0.020	−0.036	−0.057	−0.009	0.151	0.158	0.003	0.241					Z.CTG [3, 4]: 0.361; Z.CTG [3, 5]: 0.377; Z.CTG [3, 6]: 0.008; Z.CTG [3, 7]: 0.575
